Data as given in PubChem BioAssay (NCI).
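Five concentrations, 48 hours, 96-well plates. TGI is the concentration that stops growth completely.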

Key:
Assay in all cases: NCI anticancer screen, dose series, 48 h
786-0 renal = test system: 786-0 renal
A498 renal = test system: A498 renal
A549 NSCLC = test system: A549 NSCLC
ACHN renal = test system: ACHN renal
BT-549 breast = test system: BT-549 breast
CAKI-1 renal = test system: CAKI-1 renal
CCRF-CEM leukemia = test system: CCRF-CEM leukemia
COLO 205 colon = test system: COLO 205 colon
DU-145 prostate = test system: DU-145 prostate
EKVX NSCLC = test system: EKVX NSCLC
HCC-2998 colon = test system: HCC-2998 colon
HCT-116 colon = test system: HCT-116 colon
HCT-15 colon = test system: HCT-15 colon
HOP-62 NSCLC = test system: HOP-62 NSCLC
HOP-92 NSCLC = test system: HOP-92 NSCLC
HS 578T breast = test system: HS 578T breast
HT29 colon = test system: HT29 colon
IGROV1 ovarian = test system: IGROV1 ovarian
K-562 leukemia = test system: K-562 leukemia
KM12 colon = test system: KM12 colon
LOX IMVI melanoma = test system: LOX IMVI melanoma
M14 melanoma = test system: M14 melanoma
MALME-3M melanoma = test system: MALME-3M melanoma
MCF7 breast = test system: MCF7 breast
MDA-MB-231 breast = test system: MDA-MB-231 breast
MDA-MB-435 = test system: MDA-MB-435
MOLT-4 leukemia = test system: MOLT-4 leukemia
NCI-H226 lung = test system: NCI-H226 lung
NCI-H23 lung = test system: NCI-H23 lung
NCI-H460 lung = test system: NCI-H460 lung
NCI-H522 lung = test system: NCI-H522 lung
NCI/ADR-RES ovarian = test system: NCI/ADR-RES ovarian
OVCAR-3 ovarian = test system: OVCAR-3 ovarian
OVCAR-4 ovarian = test system: OVCAR-4 ovarian
OVCAR-5 ovarian = test system: OVCAR-5 ovarian
OVCAR-8 ovarian = test system: OVCAR-8 ovarian
PC-3 prostate = test system: PC-3 prostate
RPMI-8226 leukemia = test system: RPMI-8226 leukemia
RXF 393 renal = test system: RXF 393 renal
SF-268 CNS = test system: SF-268 CNS
SF-295 CNS = test system: SF-295 CNS
SK-MEL-2 melanoma = test system: SK-MEL-2 melanoma
SK-MEL-28 melanoma = test system: SK-MEL-28 melanoma
SK-MEL-5 melanoma = test system: SK-MEL-5 melanoma
SK-OV-3 ovarian = test system: SK-OV-3 ovarian
SN12C renal = test system: SN12C renal
SNB-19 CNS = test system: SNB-19 CNS
SNB-75 CNS = test system: SNB-75 CNS
SW-620 colon = test system: SW-620 colon
T-47D breast = test system: T-47D breast
TK-10 renal = test system: TK-10 renal
U251 CNS = test system: U251 CNS
UACC-257 melanoma = test system: UACC-257 melanoma
UACC-62 melanoma = test system: UACC-62 melanoma
UO-31 renal = test system: UO-31 renal

CCC1(c2ccc(N3C(=O)c4cccc5cc([N+](=O)[O-])cc(c45)C3=O)cc2)CCC(=O)NC1=O (stereo not given)
TGI (786-0 renal): 21.6 µM | TGI (A498 renal): 97.8 µM | TGI (A549 NSCLC): > 100 µM | TGI (ACHN renal): 43.5 µM | TGI (BT-549 breast): 38.6 µM | TGI (CAKI-1 renal): 50.9 µM | TGI (CCRF-CEM leukemia): 35 µM | TGI (COLO 205 colon): > 100 µM | TGI (DU-145 prostate): > 69.2 µM | TGI (EKVX NSCLC): > 70.5 µM | TGI (HCC-2998 colon): > 88.6 µM | TGI (HCT-116 colon): 21.6 µM | TGI (HCT-15 colon): > 100 µM | TGI (HOP-62 NSCLC): 26.9 µM | TGI (HOP-92 NSCLC): 8.8 µM | TGI (HS 578T breast): 64.4 µM | TGI (HT29 colon): > 100 µM | TGI (IGROV1 ovarian): 38.6 µM | TGI (K-562 leukemia): > 100 µM | TGI (KM12 colon): > 100 µM | TGI (LOX IMVI melanoma): > 70.6 µM | TGI (M14 melanoma): > 100 µM | TGI (MALME-3M melanoma): 92.2 µM | TGI (MCF7 breast): > 100 µM | TGI (MDA-MB-231 breast): 21.4 µM | TGI (MDA-MB-435): > 100 µM | TGI (MOLT-4 leukemia): > 100 µM | TGI (NCI-H226 lung): 29 µM | TGI (NCI-H23 lung): > 66.2 µM | TGI (NCI-H460 lung): > 50 µM | TGI (NCI-H522 lung): 35.1 µM | TGI (NCI/ADR-RES ovarian): 79.8 µM | TGI (OVCAR-3 ovarian): 56.5 µM | TGI (OVCAR-4 ovarian): 42.4 µM | TGI (OVCAR-5 ovarian): > 100 µM | TGI (OVCAR-8 ovarian): 28 µM | TGI (PC-3 prostate): > 100 µM | TGI (RPMI-8226 leukemia): > 100 µM | TGI (RXF 393 renal): 20.4 µM | TGI (SF-268 CNS): 51.8 µM | TGI (SF-295 CNS): 41.4 µM | TGI (SK-MEL-2 melanoma): > 100 µM | TGI (SK-MEL-28 melanoma): 86.8 µM | TGI (SK-MEL-5 melanoma): > 100 µM | TGI (SK-OV-3 ovarian): 39.5 µM | TGI (SN12C renal): 24.8 µM | TGI (SNB-19 CNS): > 74.3 µM | TGI (SNB-75 CNS): 68 µM | TGI (SW-620 colon): > 100 µM | TGI (T-47D breast): > 100 µM | TGI (TK-10 renal): > 79.1 µM | TGI (U251 CNS): 23.8 µM | TGI (UACC-257 melanoma): > 100 µM | TGI (UACC-62 melanoma): > 100 µM | TGI (UO-31 renal): 27.7 µM
